Reference: patent publication US20250109140A1, “5-[5-(PIPERIDIN-4-YL)THIENO[3,2-C]PYRAZOL-2-YL]INDAZOLE DERIVATIVES AND RELATED COMPOUNDS AS MODULATORS FOR SPLICING NUCLEIC ACIDS AND FOR THE TREATMENT OF PROLIFERATIVE DISEASES” (REMIX THERAPUTICS INC., priority 2022, published 2025)
Read-outs that look alike come from different tables or passages of the source.

Columns and labels:
Format in all cases: cell-based
[1] = system: SMN2 mRNA; assay: Splicing RT-qPCR gene panel, SMN2 canonical junction (CJ) mRNA; details: Homo sapiens; Table 8; larger gene panel, decrease in CJ mRNA levels
Experimental: (§1) Compounds described herein were used to modulate RNA transcript abundance in cells. The expression of a target mRNA was measured by detecting the formation of an exon-exon junction in the canonical transcript (CJ). A compound mediated exon-inclusion event was detected by observing an increase in formation of a new junction with an alternative exon (AJ). Real-time qPCR assays were used to detect these splicing switches and interrogate the potency of various compounds towards different target genes. A high-throughput real time quantitative PCR (RT-qPCR) assay was developed to measure these two isoforms of the mRNA (CJ and AJ) for exemplary genes, such as HTT, SMN2, and MYB, together with a control housekeeping gene, GAPDH or GUSB or PPIA, used for normalization. Briefly, the A673 or K562 cell line was treated with various compounds described herein (e.g., compounds of Formula (I)). After treatment, the levels of the HTT, MYB, or SMN2 mRNA targets were determined from each sample of cell lysate by cDNA synthesis followed by qPCR.
(§2) The A673 cell line was cultured in DMEM with 10% FBS. Cells were diluted with full growth media and plated in a 96-well plate (15,000 cells in 100 ul media per well). The plate was incubated at 37° C. with 5% CO2 for 24 hours to allow cells to adhere. An 11-point 3-fold serial dilution of the compounds was made in DMSO then diluted in media in an intermediate plate. Compounds were transferred from the intermediate plate to the cell plate with the top dose at a final concentration of 10 uM in the well. Final DMSO concentration was kept at or below 0.25%. The cell plate was returned to the incubator at 37° C. with 5% CO2 for an additional 24 hours.
(§3) The K562 cell line was cultured in IMDM with 10% FBS. For K562, cells were diluted with full growth media and plated in either a 96-well plate (50,000 cells in 50 uL media per well) or a 384-well plate (8,000-40,000 cells in 45 uL media per well). An 11-point 3-fold serial dilution of the compounds were made in DMSO then diluted in media in an intermediate plate. Compound was transferred from the intermediate plate to the cell plate with the top dose at a final concentration of 10 uM in the well. Final DMSO concentration was kept at or below 0.25%. Final volume was 100 uL for 96-well plate and 50 uL for 384-well plate. The cell plate was then placed in an incubator at 37° C. with 5% CO2 for 24 hours.
(§4) The cells were then gently washed with 50 uL-100 uL cold PBS before proceeding to addition of lysis buffer. 30 uL-50 uL of room temperature lysis buffer with DNAse I (and optionally RNAsin) was added to each well. Cells were shaken/mixed thoroughly at room temperature for 5-10 minutes for lysis to take place and then 3 uL-5 uL of room temperature stop solution was added and wells were shaken/mixed again. After 2-5 minutes, the cell lysate plate was transferred to ice for RT-qPCR reaction setup. The lysates could also be frozen at-80° C. for later use.
(§5) In some cases, a direct lysis buffer was used. An appropriate volume of 3× lysis buffer (10 mM Tris, 150 mM NaCl, 1.5%-2.5% Igepal and 0.1-1 U/uL RNAsin, pH 7.4) was directly added to either K562 or A673 cells in media and mixed by pipetting 3 times. The plates were then incubated at room temperature with shaking/rocking for 20-50 minutes to allow for lysis to take place. After this time, the cell lysate plate was transferred to ice to set up for the RT-qPCR reactions. The lysates could also be frozen at −80° C. for later use.
(§6) To set up 10 uL RT-qPCR reactions, cell lysates were transferred to 384-well qPCR plates containing the master mix according to the table below. The plates were sealed, gently vortexed, and spun down before the run. The volumes were adjusted accordingly in some instances where the reaction was carried in 20 μL. The table below summarizes the components of the RT-qPCR reactions:
(§7) The RT-qPCR reaction was performed using a QuantStudio (ThermoFisher) under the following fast cycling conditions. […]

[2] = system: MYB mRNA; assay: Splicing RT-qPCR assay, MYB canonical (CJ) and alternative (AJ) junction mRNA; details: Homo sapiens; for EC50: AC50 = 50% response in AJ mRNA increase
Experimental: as §1, §2, §3, §4, §5, §6, §7

[3] = system: Target C mRNA; assay: Splicing RT-qPCR gene panel, Target C canonical junction (CJ) mRNA; details: Homo sapiens; Table 8; larger gene panel, decrease in CJ mRNA levels
Experimental: as §1, §2, §3, §4, §5, §6, §7

[4] = system: HTT mRNA; assay: Splicing RT-qPCR assay, HTT canonical (CJ) and alternative (AJ) junction mRNA; details: Homo sapiens; for EC50: AC50 = 50% response in AJ mRNA increase
Experimental: as §1, §2, §3, §4, §5, §6, §7

[5] = Table 7, RT-qPCR, A673 or K562 cells, 24 hours treatment
[6] = Table 7, IC50 = 50% response in CJ mRNA decrease, RT-qPCR, A673 or K562 cells, 24 hours treatment, read-out: MYB CJ
[7] = Table 8, larger gene panel, decrease in CJ mRNA levels, read-out: MYB CJ IC50
[8] = Table 7, IC50 = 50% response in CJ mRNA decrease, RT-qPCR, A673 or K562 cells, 24 hours treatment, read-out: HTT CJ
[9] = Table 8, larger gene panel, decrease in CJ mRNA levels, read-out: HTT CJ IC50

SMILES | IC50 [1] [µM] | EC50 [2, 5] [µM] | IC50 [2, 6] [µM] | IC50 [2, 7] [µM] | IC50 [3] [µM] | EC50 [4, 5] [µM] | IC50 [4, 8] [µM] | IC50 [4, 9] [µM]
C[C@@H]1C[C@H](c2cc3sc(-c4cc(F)c5nn(C)cc5c4)nc3s2)CCN1 (single isomer, unassigned) [Compound 192, 7-fluoro-2-methyl-5-[5-(2-methylpiperidin-4-yl)thieno[2,3-d][1,3]thiazol-2-yl]indazole] | < 0.1 | < 0.1 | < 0.1 | < 0.1 | < 0.1 | < 0.1 | < 0.1 | < 0.1
Cc1cc(-c2cc3cn([C@@H]4CCNC[C@@H]4F)nc3s2)cc2cn(C)nc12 (single isomer, unassigned) [Compound 244] | < 0.1 | 1 to 10 | 0.1 to 1 | 0.1 to 1 | 0.1 to 1 | 0.1 to 1 | 0.1 to 1 | 0.1 to 1
Cc1cc(-c2cc3cn([C@H]4CCNC[C@H]4F)nc3s2)cc2cn(C)nc12 (single isomer, unassigned) [Compound 245] | 0.1 to 1 | 1 to 10 | 1 to 10 | 1 to 10 | 1 to 10 | 0.1 to 1 | 0.1 to 1 | 0.1 to 1
Cn1cc2cc(-n3cc4sc(C5CCNCC5)cc4n3)ccc2n1 [Compound 100, 2-methyl-5-[5-(piperidin-4-yl)thieno[3,2-c]pyrazol-2-yl]indazole] |  | > 10 | > 10 | > 10 | > 10 | 1 to 10 |  | 1 to 10
Cn1cc2cc(-c3cn4nc(C5CCNCC5)nc4s3)cc(F)c2n1 [Compound 102, 7-fluoro-2-methyl-5-[2-(piperidin-4-yl)-[1,2,4]triazolo[3,2-b][1,3]thiazol-5-yl]indazole] | < 0.1 | 1 to 10 | 0.1 to 1 | 1 to 10 | 0.1 to 1 | 0.1 to 1 | 0.1 to 1 | 0.1 to 1
Cn1cc2cc(-c3nc4sc(C5CCNCC5)cn4n3)cc(F)c2n1 [Compound 103, 7-fluoro-2-methyl-5-[5-(piperidin-4-yl)-[1,2,4]triazolo[3,2-b][1,3]thiazol-2-yl]indazole] | > 10 | > 10 | > 10 | > 10 | > 10 | > 10 | > 10 | > 10

Continued, values first:

IC50 [1] [µM] | EC50 [2, 5] [µM] | IC50 [2, 6] [µM] | IC50 [2, 7] [µM] | IC50 [3] [µM] | EC50 [4, 5] [µM] | IC50 [4, 8] [µM] | IC50 [4, 9] [µM] | SMILES
< 0.1 | < 0.1 | < 0.1 | < 0.1 | < 0.1 | < 0.1 | < 0.1 | < 0.1 | C[C@@H]1C[C@@H](c2cc3sc(-c4cc(F)c5nn(C)cc5c4)nc3s2)CCN1 (single isomer, unassigned) [Compound 193, 7-fluoro-2-methyl-5-[5-(2-methylpiperidin-4-yl)thieno[2,3-d][1,3]thiazol-2-yl]indazole]
< 0.1 | 0.1 to 1 | 0.1 to 1 | 0.1 to 1 | 0.1 to 1 | < 0.1 | < 0.1 | < 0.1 | C[C@@H]1C[C@@H](c2cc3sc(-c4cc(F)c5nn(C)cc5c4)nc3s2)CCN1 (stereo in doubt) [Compound 263, 7-fluoro-2-methyl-5-{5-[(2R,4S)-2-methylpiperidin-4-yl]thieno[2,3-d][1,3]thiazol-2-yl}indazole]
< 0.1 | < 0.1 | < 0.1 | < 0.1 | < 0.1 | < 0.1 | < 0.1 | < 0.1 | Cn1cc2cc(-c3nc4sc(C5CCNCC5)cc4s3)cc(F)c2n1 [Compound 106, 7-fluoro-2-methyl-5-[5-(piperidin-4-yl)thieno[2,3-d][1,3]thiazol-2-yl]indazole]
< 0.1 | < 0.1 | < 0.1 | < 0.1 | < 0.1 | < 0.1 | < 0.1 | < 0.1 | Cc1cn2nc(-c3nc4sc(C5CCNCC5)cc4s3)cc(C)c2n1 [Compound 112, 4-(2-[2,8-dimethylimidazo[1,2-b]pyridazin-6-yl]thieno[2,3-d][1,3]thiazol-5-yl)piperidine]
